Read-outs that look alike come from different tables or passages of the source.
Legend:
[1] = tested on: PAD4 R374Q mutant; assay: IC50 with PAD4 R374Q mutant; conditions: relative to wild type PAD4
[2] = molecular target: T1, PAD2 (Homo sapiens, UniProt Q9Y2J8); assay: PAD2 inhibition, IC50 determination; type: biochemical; conditions: read-out: IC50 PAD2
[3] = molecular target: T2, PAD3 (Homo sapiens, UniProt Q9ULW8); assay: PAD3 inhibition, IC50 determination; type: biochemical; conditions: read-out: IC50 PAD3
T2 sequence (Q9ULW8 1-664): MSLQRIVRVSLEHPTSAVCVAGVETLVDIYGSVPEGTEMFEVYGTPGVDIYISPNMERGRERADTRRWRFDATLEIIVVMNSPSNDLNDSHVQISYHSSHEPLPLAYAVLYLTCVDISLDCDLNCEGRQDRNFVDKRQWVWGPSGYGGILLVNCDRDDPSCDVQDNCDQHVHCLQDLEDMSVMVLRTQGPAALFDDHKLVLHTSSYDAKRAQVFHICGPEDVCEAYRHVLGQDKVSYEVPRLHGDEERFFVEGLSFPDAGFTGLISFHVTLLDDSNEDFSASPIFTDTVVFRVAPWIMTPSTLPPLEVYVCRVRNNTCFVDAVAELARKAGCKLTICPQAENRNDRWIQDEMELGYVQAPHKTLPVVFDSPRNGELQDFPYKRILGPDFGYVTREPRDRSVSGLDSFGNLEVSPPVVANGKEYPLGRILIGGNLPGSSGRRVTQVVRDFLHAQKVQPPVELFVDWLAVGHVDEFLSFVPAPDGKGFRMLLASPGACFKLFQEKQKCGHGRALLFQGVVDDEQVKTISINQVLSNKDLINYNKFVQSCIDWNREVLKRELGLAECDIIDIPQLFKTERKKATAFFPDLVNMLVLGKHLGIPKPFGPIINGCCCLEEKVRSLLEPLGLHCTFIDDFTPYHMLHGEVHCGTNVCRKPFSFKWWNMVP

[4] = tested on: PAD4 Q346A mutant; assay: IC50 with PAD4 Q346A mutant; conditions: relative to wild type PAD4
[5] = tested on: PAD4 R639Q mutant; assay: IC50 with PAD4 R639Q mutant; conditions: relative to wild type PAD4
[6] = molecular target: T3, PAD1 (Homo sapiens, UniProt Q9ULC6); assay: PAD1 inhibition, IC50 determination; type: biochemical; conditions: read-out: IC50 PAD1
T3 sequence (Q9ULC6 1-663): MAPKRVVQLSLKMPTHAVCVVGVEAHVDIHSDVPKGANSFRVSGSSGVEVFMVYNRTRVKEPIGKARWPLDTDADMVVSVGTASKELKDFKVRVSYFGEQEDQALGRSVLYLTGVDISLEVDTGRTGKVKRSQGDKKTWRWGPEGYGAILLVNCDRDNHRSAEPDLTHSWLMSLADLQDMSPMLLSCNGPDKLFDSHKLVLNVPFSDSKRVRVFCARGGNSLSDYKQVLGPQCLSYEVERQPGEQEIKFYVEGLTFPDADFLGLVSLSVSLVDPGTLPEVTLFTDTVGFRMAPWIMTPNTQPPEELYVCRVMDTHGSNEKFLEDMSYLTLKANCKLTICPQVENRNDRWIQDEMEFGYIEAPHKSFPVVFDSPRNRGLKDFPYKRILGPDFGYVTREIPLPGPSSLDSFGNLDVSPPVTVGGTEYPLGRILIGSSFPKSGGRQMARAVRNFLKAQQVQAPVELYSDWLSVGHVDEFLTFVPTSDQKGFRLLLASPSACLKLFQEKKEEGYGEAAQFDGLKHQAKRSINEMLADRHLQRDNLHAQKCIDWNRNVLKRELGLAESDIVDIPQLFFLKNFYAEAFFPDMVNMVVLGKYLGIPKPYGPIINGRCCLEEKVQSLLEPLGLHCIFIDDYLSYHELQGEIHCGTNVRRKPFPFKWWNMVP

[7] = molecular target: T4, PAD4 (Homo sapiens, UniProt Q9UM07); assay: PAD4 inhibition, IC50 determination
[8] = molecular target: T4, PAD4; assay: Dialysis of PAD4•inactivator complex; type: biochemical; conditions: excess inhibitor, 20 h of dialysis
[9] = molecular target: T4, PAD4; assay: Substrate protection experiments; type: biochemical; conditions: two different concentrations of substrate
[10] = animal models of RA, UC, and neuron degeneration; cited from earlier work
[11] = molecular target: T2, PAD3; conditions: read-out: IC50 PAD3; first generation inhibitors; cited from earlier work
[12] = molecular target: T3, PAD1; conditions: read-out: IC50 PAD1; first generation inhibitors; cited from earlier work
[13] = molecular target: T2, PAD3; assay: Substrate activity with PAD3
[14] = molecular target: T4, PAD4; assay: Substrate activity with PAD4
[15] = molecular target: T1, PAD2; assay: Substrate activity with PAD2
[16] = molecular target: T3, PAD1; assay: Substrate activity with PAD1

T4 sequence (Q9UM07 whole entry): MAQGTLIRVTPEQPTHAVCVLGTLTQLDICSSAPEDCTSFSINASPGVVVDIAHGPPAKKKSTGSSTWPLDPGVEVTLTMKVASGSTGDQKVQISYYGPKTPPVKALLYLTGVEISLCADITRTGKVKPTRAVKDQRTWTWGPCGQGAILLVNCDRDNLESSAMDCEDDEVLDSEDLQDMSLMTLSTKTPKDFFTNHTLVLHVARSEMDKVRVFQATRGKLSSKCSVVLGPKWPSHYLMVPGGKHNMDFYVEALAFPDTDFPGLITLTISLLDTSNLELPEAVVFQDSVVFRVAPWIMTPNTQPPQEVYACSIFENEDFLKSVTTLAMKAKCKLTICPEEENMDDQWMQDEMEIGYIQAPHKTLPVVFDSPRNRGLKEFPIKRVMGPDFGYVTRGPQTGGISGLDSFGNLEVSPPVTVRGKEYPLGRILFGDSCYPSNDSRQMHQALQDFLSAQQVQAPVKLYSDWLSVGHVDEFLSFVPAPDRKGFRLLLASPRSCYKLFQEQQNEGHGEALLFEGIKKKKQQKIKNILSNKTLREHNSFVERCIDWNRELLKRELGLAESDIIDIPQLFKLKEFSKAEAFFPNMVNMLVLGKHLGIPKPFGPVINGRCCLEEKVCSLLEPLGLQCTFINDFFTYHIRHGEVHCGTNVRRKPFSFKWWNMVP
T1 sequence (Q9Y2J8 whole entry): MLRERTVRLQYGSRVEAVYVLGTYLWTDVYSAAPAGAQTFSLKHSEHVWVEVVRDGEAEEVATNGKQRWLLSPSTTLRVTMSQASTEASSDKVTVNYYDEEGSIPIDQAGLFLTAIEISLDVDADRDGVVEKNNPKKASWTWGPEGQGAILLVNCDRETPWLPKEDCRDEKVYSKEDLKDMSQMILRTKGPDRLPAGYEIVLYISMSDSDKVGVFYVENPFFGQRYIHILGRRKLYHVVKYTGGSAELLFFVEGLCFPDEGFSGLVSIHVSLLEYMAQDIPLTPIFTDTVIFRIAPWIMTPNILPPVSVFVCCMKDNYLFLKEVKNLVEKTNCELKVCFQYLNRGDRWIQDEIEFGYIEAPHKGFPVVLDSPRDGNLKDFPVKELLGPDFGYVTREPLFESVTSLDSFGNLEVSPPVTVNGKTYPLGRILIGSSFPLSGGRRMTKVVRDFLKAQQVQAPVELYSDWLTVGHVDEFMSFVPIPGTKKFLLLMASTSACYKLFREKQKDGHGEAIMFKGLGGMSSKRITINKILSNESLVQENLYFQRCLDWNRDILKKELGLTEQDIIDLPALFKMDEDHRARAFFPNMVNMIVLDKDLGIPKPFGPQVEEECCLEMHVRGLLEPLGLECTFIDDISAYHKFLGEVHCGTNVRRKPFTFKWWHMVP

## CC(=O)N[C@H](C(=O)N[C@@H](CC(=O)O)C(=O)N[C@@H](CCCN=C(N)CF)C(N)=O)[C@@H](C)O [TDFA, Thr-Asp-F-amidine]
[1]
  increase of IC50 with R374Q mutant: 5.2 fold
[2]
  IC50: 71 ± 4.4 µM
[3]
  IC50: 26 ± 7.4 µM
[4]
  increase of IC50 with Q346A mutant: 1.9 fold
[5]
  increase of IC50 with R639Q mutant: 2.9 fold
[6]
  IC50: 8.5 ± 0.8 µM
[7]
  selectivity for PAD4 relative to the other PADs, based on IC50 values: ≥ 4 fold
[7]; PAD4
  enhancement in potency relative to F-amidine (IC50): ~ 10 fold
[7]; read-out: IC50 PAD4
  IC50: 2.3 ± 0.2 µM
[8]
  recovery of PAD4 activity after dialysis: no recovery of activity
[9]
  rates of inactivation at the higher concentration of substrate: considerably lower

## N=C(CCl)NCCC[C@H](NC(=O)c1ccccc1)C(N)=O [Cl-amidine, N-alpha-benzoyl-N5-(2-chloro-1-iminoethyl)-L-ornithine amide]
[10]
  effect on disease severity in animal models: reduces disease severity

## NC(=O)[C@H](CCCN=C(N)CF)NC(=O)c1ccccc1 [F-amidine]
[11]
  IC50: ≥ 350 µM
[12]
  IC50: 30 ± 1.3 µM

## Ac-Threonine-Aspartate-Arginine-NH2 [Ac-TDR-NH2]
[13]
  substrate quality for PAD3: relatively poor
[14]
  substrate quality for PAD4: excellent substrate
[15]
  substrate quality for PAD2: relatively poor
[16]
  substrate quality for PAD1: excellent substrate

— article PMC3262960 (ACS Chemical Biology, 2011)
